system: apyrase; assay: Screen for apyrase inhibitors (Method 1, in vitro phosphate-release absorbance assay); format: biochemical; conditions: inhibitor conc at 1 mM stock, 1 hr room temperature, absorbance 630 nm; rounded average of two assay results
Procedure, shortened: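 Phosphate-release colorimetric assay (Windsor method) in 60 mM Hepes, 3 mM MgCl2, 3 mM CaCl2, 3 mM ATP, pH 6.5, with compound or DMSO control added. Released phosphate developed with ammonium molybdate and ascorbic acid/TCA, then stopped with citrate/acetic acid.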

% Inhibition of Apyrase [%] | Structure (SMILES)
59 | CCOc1ccc(NC(=O)c2ccc(NS(=O)(=O)c3ccccc3)cc2)cc1 [I-914, N-(4-ethoxyphenyl)-4-(phenylsulfonamido)benzamide]
81 | Cc1ccc(C(=O)Nc2cccc(NS(=O)(=O)c3ccccc3)c2)cc1C [I-184, 3,4-dimethyl-N-(3-(phenylsulfonamido)phenyl)benzamide]
65 | O=C(Nc1ccc(Cl)c(S(=O)(=O)N2CCOCC2)c1)c1ccc(S(=O)(=O)Nc2cccc(C(F)(F)F)c2)cc1 [I-386, N-(4-chloro-3-(morpholinosulfonyl)phenyl)-4-(N-(3-(trifluoromethyl)phenyl)sulfamoyl)benzamide]
72 | O=C(Nc1ccc(C(F)(F)F)cc1)c1cccc(S(=O)(=O)Nc2ccc3c(c2)OCO3)c1 [I-192, 3-(N-(benzo[d][1,3]dioxol-5-yl)sulfamoyl)-N-(4-(trifluoromethyl)phenyl)benzamide]
42 | COc1ccc(C(CNC(=O)c2cccc(S(=O)(=O)Nc3ccc(Br)cc3)c2)N(C)C)cc1 (stereo not shown) [I-279, 3-(N-(4-bromophenyl)sulfamoyl)-N-(2-(dimethylamino)-2-(4-methoxyphenyl)ethyl)benzamide]
10 | O=C(Nc1cccc([N+](=O)[O-])c1)c1cc(S(=O)(=O)Nc2ccc(F)cc2)ccc1Cl [I-52, 2-chloro-5-(N-(4-fluorophenyl)sulfamoyl)-N-(3-nitrophenyl)benzamide]
52 | CN(c1ccccc1)S(=O)(=O)c1cccc(NC(=O)c2cc(Cl)nc3ccccc23)c1 [I-739, 2-chloro-N-(3-(N-methyl-N-phenylsulfamoyl)phenyl)quinoline-4-carboxamide]
59 | COc1ccc([N+](=O)[O-])cc1S(=O)(=O)Nc1ccccc1NC(=O)c1ccc(C(C)(C)C)cc1 [I-831, 4-(tert-butyl)-N-(2-((2-methoxy-5-nitrophenyl)sulfonamido)phenyl)benzamide]
59 | CC1Cc2ccccc2N1S(=O)(=O)c1cccc(C(=O)N2CCCc3ccccc32)c1 (stereo not shown) [I-465, (3,4-dihydroquinolin-1(2H)-yl)(3-((2-methylindolin-1-yl)sulfonyl)phenyl)methanone]
49 | Cc1cnc(C(=O)Nc2cccc(S(=O)(=O)Nc3cccc(Cl)c3)c2)cn1 [I-744, N-(3-(N-(3-chlorophenyl)sulfamoyl)phenyl)-5-methylpyrazine-2-carboxamide]
23 | COc1ccc([N+](=O)[O-])cc1NC(=O)c1ccc(C)c(S(=O)(=O)Nc2ccccc2)c1 [I-28, N-(2-methoxy-5-nitrophenyl)-4-methyl-3-(N-phenylsulfamoyl)benzamide]
57 | COc1ccccc1NS(=O)(=O)c1ccc(NC(=O)c2ccccc2SCC2CCCO2)cc1 (stereo not shown) [I-985, N-(4-(N-(2-methoxyphenyl)sulfamoyl)phenyl)-2-(((tetrahydrofuran-2-yl)methyl)thio)benzamide]
13 | COc1ccc([N+](=O)[O-])cc1NC(=O)c1cccc(S(=O)(=O)Nc2ccc(Cl)cc2)c1 [I-41, 3-(N-(4-chlorophenyl)sulfamoyl)-N-(2-methoxy-5-nitrophenyl)benzamide]
61 | O=C(Nc1cccc(S(=O)(=O)N2CCCCC2)c1)c1cccc(S(=O)(=O)N2CCc3ccccc32)c1 [I-446, 3-(indolin-1-ylsulfonyl)-N-(3-(piperidin-1-ylsulfonyl)phenyl)benzamide]
58 | COc1ccccc1NS(=O)(=O)c1cccc(C(=O)Nc2cccc([N+](=O)[O-])c2)c1 [I-268, 3-(N-(2-methoxyphenyl)sulfamoyl)-N-(3-nitrophenyl)benzamide]
55 | N#Cc1cccc(NC(=O)c2ccc(NS(=O)(=O)c3ccc(F)c(F)c3)cc2)c1 [I-932, N-(3-cyanophenyl)-4-((3,4-difluorophenyl)sulfonamido)benzamide]
39 | Cc1nc2ccc(NC(=O)c3ccc(S(=O)(=O)N4CCCc5ccccc54)cc3)cc2s1 [I-889, 4-((3,4-dihydroquinolin-1(2H)-yl)sulfonyl)-N-(2-methylbenzo[d]thiazol-6-yl)benzamide]
42 | COc1ccc(OC)c(S(=O)(=O)Nc2cccc(C(=O)Nc3cccc(C(F)(F)F)c3)c2)c1 [I-323, 3-((2,5-dimethoxyphenyl)sulfonamido)-N-(3-(trifluoromethyl)phenyl)benzamide]
76 | COc1ccc2c(c1)CCCN2C(=O)c1ccc(S(=O)(=O)Nc2ccc(F)cc2)cc1 [I-858, N-(4-fluorophenyl)-4-(6-methoxy-1,2,3,4-tetrahydroquinoline-1-carbonyl)benzenesulfonamide]
56 | O=C(Nc1ccc(F)cc1)c1cccc(S(=O)(=O)N2CCc3ccccc32)c1 [I-512, N-(4-fluorophenyl)-3-(indolin-1-ylsulfonyl)benzamide]

% Inhibition of Apyrase [%] | Structure (SMILES)
62 | COc1ccccc1NS(=O)(=O)c1cccc(NC(=O)c2c[nH]c3ccccc23)c1 [I-707, N-(3-(N-(2-methoxyphenyl)sulfamoyl)phenyl)-1H-indole-3-carboxamide]
77 | N#Cc1cccc(NC(=O)c2ccc(S(=O)(=O)Nc3ccc(Cl)cc3)cc2)c1 [I-185, 4-(N-(4-chlorophenyl)sulfamoyl)-N-(3-cyanophenyl)benzamide]
42 | COc1ccc(NS(=O)(=O)c2cccc(C(=O)Nc3ccc(C#N)cc3)c2)cc1 [I-1006, N-(4-cyanophenyl)-3-(N-(4-methoxyphenyl)sulfamoyl)benzamide]
68 | Cc1cc(NC(=O)c2cccc(NS(=O)(=O)c3ccc4c(c3)OCCO4)c2)no1 [I-628, 3-((2,3-dihydrobenzo[b][1,4]dioxine)-6-sulfonamido)-N-(5-methylisoxazol-3-yl)benzamide]
47 | COc1ccccc1NC(=O)c1ccc(NS(=O)(=O)c2cccc(C#N)c2)cc1 [I-944, 4-((3-cyanophenyl)sulfonamido)-N-(2-methoxyphenyl)benzamide]
53 | O=C(Nc1ccc(S(=O)(=O)Nc2cccc(Cl)c2)cc1)c1ccc(F)cc1 [I-990, N-(4-(N-(3-chlorophenyl)sulfamoyl)phenyl)-4-fluorobenzamide]
40 | C[S+]([O-])c1ccc(C(=O)Nc2cccc(S(=O)(=O)Nc3ccc(Br)cc3)c2)cc1 (stereo not shown) [I-334, N-(3-(N-(4-bromophenyl)sulfamoyl)phenyl)-4-(methylsulfinyl)benzamide]
61 | O=C(Nc1cccc(F)c1)c1cccc(S(=O)(=O)N2CCc3ccccc32)c1 [I-443, N-(3-fluorophenyl)-3-(indolin-1-ylsulfonyl)benzamide]
22 | CC(=O)c1cccc(NS(=O)(=O)c2cc(C(=O)Nc3cccc([N+](=O)[O-])c3)ccc2C)c1 [I-29, 3-(N-(3-acetylphenyl)sulfamoyl)-4-methyl-N-(3-nitrophenyl)benzamide]
54 | COc1ccc(NC(=O)c2cccc(NS(=O)(=O)c3ccc(Br)cc3)c2)cn1 [I-645, 3-((4-bromophenyl)sulfonamido)-N-(6-methoxypyridin-3-yl)benzamide]
58 | CC1Cc2ccccc2N1S(=O)(=O)c1cccc(C(=O)Nc2cccc3cccnc23)c1 (stereo not shown) [I-484, 3-((2-methylindolin-1-yl)sulfonyl)-N-(quinolin-8-yl)benzamide]
55 | CN(c1ccc(F)cc1)S(=O)(=O)c1ccc(Cl)c(C(=O)Nc2ccc(F)c(Cl)c2)c1 [I-528, 2-chloro-N-(3-chloro-4-fluorophenyl)-5-(N-(4-fluorophenyl)-N-methylsulfamoyl)benzamide]
58 | CN(c1ccccc1)S(=O)(=O)c1cccc(C(=O)N2CCCc3ccccc32)c1 [I-482, N-methyl-N-phenyl-3-(1,2,3,4-tetrahydroquinoline-1-carbonyl)benzenesulfonamide]
60 | O=C(Nc1ccc2c(c1)OCO2)c1cccc(S(=O)(=O)N2CCc3ccccc32)c1 [I-451, N-(benzo[d][1,3]dioxol-5-yl)-3-(indolin-1-ylsulfonyl)benzamide]
61 | Cc1cccc(C(=O)Nc2cccc(S(=O)(=O)Nc3cccc(C(F)(F)F)c3)c2)n1 [I-708, 6-methyl-N-(3-(N-(3-(trifluoromethyl)phenyl)sulfamoyl)phenyl) picolinamide]
54 | O=C(Nc1ccc(-n2cnnn2)cc1)c1cccc(S(=O)(=O)N2CCc3ccccc32)c1 [I-535, N-(4-(1H-tetrazol-1-yl)phenyl)-3-(indolin-1-ylsulfonyl)benzamide]
67 | Cc1cccc(NC(=O)c2cccc(NS(=O)(=O)c3ccc(Cl)cc3)c2)c1 [I-7, 3-((4-chlorophenyl)sulfonamido)-N-(m-tolyl)benzamide]
59 | O=C(c1cc(S(=O)(=O)Nc2cccc(C(F)(F)F)c2)ccc1Cl)N1CCCc2ccccc21 [I-474, 4-chloro-3-(1,2,3,4-tetrahydroquinoline-1-carbonyl)-N-(3-(trifluoromethyl)phenyl)benzenesulfonamide]
46 | CC(=O)c1cc2c(cc1NC(=O)c1cccc(S(=O)(=O)N3CCc4ccccc43)c1)OCO2 [I-584, N-(6-acetylbenzo[d][1,3]dioxol-5-yl)-3-(indolin-1-ylsulfonyl)benzamide]
74 | O=C(Nc1ccc(F)cc1)c1ccc(S(=O)(=O)Nc2cccc(C(F)(F)F)c2)cc1 [I-193, N-(4-fluorophenyl)-4-(N-(3-(trifluoromethyl)phenyl)sulfamoyl)benzamide]
